Data taken from patent publication US20250041577A1, “SHORT-PULSE SONODYNAMIC TREATMENT APPARATUS” (Insightec, Ltd., priority 2021, published 2025).
Like-named read-outs stand apart in the source and are kept apart here.

Columns and labels:
[1] = Drug and device safety of 5-ALA SDT in recurrent GBM patients (Phase 0/1); format: in vivo, human; details: three adult recurrent GBM patients
Protocol: Six hours prior to MRgFUS, adult patients with recurrent GBM are administered SONALA-001 (10 mg/kg), an investigational IV formulation of […]. Oral […] is an FDA- and […] agent used in fluorescence-guided surgery to visualize glioma infiltration and maximize extent of resection. The […] Model 4000 Type-2 system is an investigational MRgFUS with a 1000-element transducer utilizing real-time MR imaging during treatment delivery. It includes the same monitoring capabilities as the ablative, FDA-approved Type-1 system for essential tremor and tremor-dominant Parkinson's Disease. However, the Type-2 device can target a large range of brain anatomy and operates at relatively low ultrasound frequencies and intensities, preventing tissue heating when inducing sonoluminescence. Intra-procedural MR thermometry automatically triggers an auto-stop if any tissue approaches ablative temperatures. […] Patients must have completed standard-of-care chemotherapy and radiotherapy prior to radiographic recurrence. In a Dose-Escalation Arm, 9-18 patients are assigned to one of three ascending acoustic energy doses of […], measured at transducer surface), followed by a four-day interval until tumor resection. In each patient, half the tumor volume, including Gadolinium-enhancing and non-enhancing tumor, is targeted with MRgFUS and the other half serves as an internal control. […]

[2] = Plasma and blood pharmacokinetics of 5-ALA and PPIX after IV SONALA-001 (LC-MS/MS); format: in vivo; details: human, plasma; 10 mg/kg IV Sonala-001; recurrent GBM patients; read-out: median Cmax for 5-ALA in plasma
Protocol: Six hours prior to MRgFUS, adult patients with recurrent GBM are administered SONALA-001 (10 mg/kg), an investigational IV formulation of […]. Oral […] is an FDA- and […] agent used in fluorescence-guided surgery to visualize glioma infiltration and maximize extent of resection. LCMS/MS methods were developed to determine the levels of […] and PPIX in plasma and blood following IV administration of SONALA-001. Samples were analyzed using SCIEX ExionLC UHPLC system and the detection was performed on SCIEX QTRAP 6500+ mass spectrometer by multiple reaction monitoring mode to monitor the precursor-to-product ion transitions in positive electrospray ionization mode.

[3] = human, in vivo
Text: Performed similarly to Example 1 with same study drug but for Diffuse Intrinsic Pontine Glioma (DIPG) and with typically only radiation therapy performed prior.
Performed similarly to Example 1 but with an increase in the number of subspots per sonication (32 subspots). Targets were overlapped with a 2.0-3.0 mm spot to spot separation and Duty Cycle within 4-32% throughout the study. Pulse duration ranged from 0.0002 to 0.002 second.
Similar to Example 1, this multi-center, non-randomized, open label, first-in-pediatric Phase 1/2 study is a drug dose (5, 10, or 15 mg/kg SONALA-001) and focused ultrasound energy (200J, 400J, or 800J) escalation study containing 18-24 subjects, 9 cohorts of approximately 3 patients each. These pediatric patients with DIPG must have completed standard-of-care radiotherapy prior to radiographic treatment. No resection due to location but biopsy can be obtained. In the first patient, half of the Pons volume is targeted with MRgFUS and the other half serves as an internal control for safety. If no DLTs or any grade intracranial hemorrhage and any clinical symptoms (CTCAE, Version 5.0, i.e., intracranial hemorrhage Grades 2-5) are observed, the next patients will receive treatment over the entire pons. The intervention model will be sequential assignment using a Bayesian optimal interval (BOIN) dose escalation method. […]

**Q.** Which 5-ALA-related photosensitivity [1] does the source give for `NCC(=O)CCC(=O)O` [5-ALA, 5-aminolevulinic acid] here?
**A.** The 5-ALA-related photosensitivity was “No patient demonstrated 5-ALA-related photosensitivity”.

**Q.** What about the Cmax [2] of the same compound?
**A.** Its Cmax is 307 µM.

**Q.** What about the 5-ALA-related photosensitivity [3] of the same compound?
**A.** Its 5-ALA-related photosensitivity is “No patient demonstrated 5-ALA-related photosensitivity”.
